Data on 15 compounds can be found in US20230093861A1, “RAPAMYCIN ANALOGS AS MTOR INHIBITORS” (Revolution Medicines, Inc., priority 2017, published 2023).

SMILES strings stand for the structures.

One experiment relates to P-P70S6K (T389). The experiment is described as follows: Cell based AlphaLISA assay, inhibition of P-P70S6K (T389) (mTORC1 substrate phosphorylation) in MDA-MB-468 cells. As to conditions: Homo sapiens, 4 h, AlphaLISA, two to four hours at 37° C., read-out: pIC50 for Inhibition of mTORC1 and mTORC2 Substrate Phosphorylation, P-P70S6K-(T389) (converted). A digest of the protocol: (§1)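 Readout is the Alpha signal for each phosphoprotein, measured in duplicate from cell lysates with a SureFire Ultra homogeneous assay. IC50 values derive from inhibitor concentration-response curves fitted by normalized regression against controls.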
For orientation: In Alpha technology, singlet oxygen from a donor bead excites a nearby acceptor bead.

A further experiment deals with P-4E-BP1 (T37/46). The experiment is described as follows: Cell based AlphaLISA assay, inhibition of P-4E-BP1 (T37/46) (mTORC1 substrate phosphorylation) in MDA-MB-468 cells. Conditions: Homo sapiens, MDA-MB-468, 4 h, AlphaLISA, two to four hours at 37° C., read-out: pIC50 for Inhibition of mTORC1 and mTORC2 Substrate Phosphorylation, P-4E-BP1-(T37/46) (converted). Summed up:
as §1

A further experiment deals with P-Akt (S473). The experiment is described as follows: Cell based AlphaLISA assay, inhibition of P-Akt (S473) (mTORC2 substrate phosphorylation) in MDA-MB-468 cells. As to conditions: Homo sapiens, MDA-MB-468, 4 h, AlphaLISA, two to four hours at 37° C., read-out: pIC50 for Inhibition of mTORC1 and mTORC2 Substrate Phosphorylation, p-AKT 1/2/3 -(S473) (converted). A digest of the protocol:
as §1

As to `CO[C@H]1C[C@@H]2CC[C@@H](C)[C@@](O)(O2)C(=O)C(=O)N2CCCC[C@H]2C(=O)O[C@H]([C@H](C)C[C@@H]2CC[C@H](n3cc(COC(=O)NCCOCCOCCC(=O)NCc4cnc(N5CCN(c6ncc(C(=O)NCCCCn7nc(-c8cc9cc(O)ccc9[nH]8)c8c(N)ncnc87)cn6)CC5)nc4)nn3)[C@H](OC)C2)CC(=O)[C@H](C)/C=C(\C)[C@@H](O)[C@@H](OC)C(=O)[C@H](C)C[C@H](C)/C=C/C=C/C=C/1C` [Example 182], the IC50 in the experiment on P-P70S6K (T389) was below 1 nM; with P-4E-BP1 (T37/46) it was above 1000 nM; in the experiment with P-Akt (S473), above 1000 nM.
Consider `CO[C@H]1C[C@@H]2CC[C@@H](C)[C@@](O)(O2)C(=O)C(=O)N2CCCC[C@H]2C(=O)O[C@H]([C@H](C)C[C@@H]2CC[C@H](n3cc(COC(=O)NCCOCCOCCOCCC(=O)NCc4cnc(N5CCN(c6ncc(C(=O)NCCCCn7nc(-c8ccc9oc(N)nc9c8)c8c(N)ncnc87)cn6)CC5)nc4)nn3)[C@H](OC)C2)CC(=O)[C@H](C)/C=C(\C)[C@@H](O)[C@@H](OC)C(=O)[C@H](C)C[C@H](C)/C=C/C=C/C=C/1C` [Example 183], for which the IC50 in the experiment with P-P70S6K (T389) is below 1 nM; in the experiment on P-4E-BP1 (T37/46) it was below 3.16 nM; in the experiment on P-Akt (S473), 3.16 to 31.6 nM.
As to `CO[C@H]1C[C@@H]2CC[C@@H](C)[C@@](O)(O2)C(=O)C(=O)N2CCCC[C@H]2C(=O)O[C@H]([C@H](C)C[C@@H]2CC[C@H](n3cc(COC(=O)NCCOCCOCCOCCC(=O)NCc4cnc(N5CCN(c6ncc(C(=O)NCCCCn7nc(-c8cc9cc(O)ccc9[nH]8)c8c(N)ncnc87)cn6)CC5)nc4)nn3)[C@H](OC)C2)CC(=O)[C@H](C)/C=C(\C)[C@@H](O)[C@@H](OC)C(=O)[C@H](C)C[C@H](C)/C=C/C=C/C=C/1C` [Example 184], the IC50 with P-P70S6K (T389) was below 1 nM; in the experiment on P-4E-BP1 (T37/46) it was below 3.16 nM; in the experiment on P-Akt (S473), 3.16 to 31.6 nM.
For the compound `CO[C@H]1C[C@@H]2CC[C@@H](C)[C@@](O)(O2)C(=O)C(=O)N2CCCC[C@H]2C(=O)O[C@H]([C@H](C)C[C@@H]2CC[C@H](n3cc(COC(=O)NCCOCCOCCOCCOCCC(=O)NCc4cnc(N5CCN(c6ncc(C(=O)NCCCCn7nc(-c8ccc9oc(N)nc9c8)c8c(N)ncnc87)cn6)CC5)nc4)nn3)[C@H](OC)C2)CC(=O)[C@H](C)/C=C(\C)[C@@H](O)[C@@H](OC)C(=O)[C@H](C)C[C@H](C)/C=C/C=C/C=C/1C` [Example 185], the IC50 in the experiment on P-P70S6K (T389) was below 1 nM; in the experiment on P-4E-BP1 (T37/46), below 3.16 nM; in the experiment with P-Akt (S473), 3.16 to 31.6 nM.
Take `CO[C@H]1C[C@@H]2CC[C@@H](C)[C@@](O)(O2)C(=O)C(=O)N2CCCC[C@H]2C(=O)O[C@H]([C@H](C)C[C@@H]2CC[C@H](n3cc(COC(=O)NCCOCCOCCOCCOCCC(=O)NCc4cnc(N5CCN(c6ncc(C(=O)NCCCCn7nc(-c8cc9cc(O)ccc9[nH]8)c8c(N)ncnc87)cn6)CC5)nc4)nn3)[C@H](OC)C2)CC(=O)[C@H](C)/C=C(\C)[C@@H](O)[C@@H](OC)C(=O)[C@H](C)C[C@H](C)/C=C/C=C/C=C/1C` [Example 186]: the IC50 with P-P70S6K (T389) was below 1 nM; with P-4E-BP1 (T37/46), 3.16 to 31.6 nM; in the experiment with P-Akt (S473), 31.6 to 1000 nM.
Taken in the same sequence, the figures for `COc1cccc2cc(-c3nc([C@H]4CC[C@H](C(=O)NCCOCCOCCNC(=O)CCOCCOCCOCCOCCn5cc(CCCCO[C@@H]6CC[C@@H](C[C@@H](C)[C@@H]7CC(=O)[C@H](C)/C=C(\C)[C@@H](O)[C@@H](OC)C(=O)[C@H](C)C[C@H](C)/C=C/C=C/C=C(\C)[C@@H](OC)C[C@@H]8CC[C@@H](C)[C@@](O)(O8)C(=O)C(=O)N8CCCC[C@H]8C(=O)O7)C[C@H]6OC)nn5)CC4)n4ncnc(N)c34)[nH]c12` [Example 187] were below 1 nM, below 3.16 nM and 3.16 to 31.6 nM.
Regarding `COc1cccc2cc(-c3nc([C@H]4CC[C@H](C(=O)NCCOCCOCCNC(=O)CCOCCOCCOCCOCCn5cc(CCCCO[C@@H]6CC[C@@H](C[C@@H](C)[C@@H]7C[C@@H](OC)[C@H](C)/C=C(\C)[C@@H](O)[C@@H](OC)C(=O)[C@H](C)C[C@H](C)/C=C/C=C/C=C(\C)[C@@H](OC)C[C@@H]8CC[C@@H](C)[C@@](O)(O8)C(=O)C(=O)N8CCCC[C@H]8C(=O)O7)C[C@H]6OC)nn5)CC4)n4ncnc(N)c34)[nH]c12` [Example 188], the IC50 with P-P70S6K (T389) is below 1 nM; with P-4E-BP1 (T37/46), below 3.16 nM; with P-Akt (S473) it was 31.6 to 1000 nM.
On to `COc1cccc2cc(-c3nc([C@H]4CC[C@H](C(=O)NCCOCCOCCOCCNC(=O)CCOCCOCCOCCOCCn5cc(CCCCO[C@@H]6CC[C@@H](C[C@@H](C)[C@@H]7CC(=O)[C@H](C)/C=C(\C)[C@@H](O)[C@@H](OC)C(=O)[C@H](C)C[C@H](C)/C=C/C=C/C=C(\C)[C@@H](OC)C[C@@H]8CC[C@@H](C)[C@@](O)(O8)C(=O)C(=O)N8CCCC[C@H]8C(=O)O7)C[C@H]6OC)nn5)CC4)n4ncnc(N)c34)[nH]c12` [Example 189], for which the IC50 in the experiment with P-P70S6K (T389) is below 1 nM; with P-4E-BP1 (T37/46) it was below 3.16 nM; in the experiment on P-Akt (S473), 3.16 to 31.6 nM.
With `COc1cccc2cc(-c3nc([C@H]4CC[C@H](C(=O)NCCOCCOCCOCCNC(=O)CCOCCOCCOCCOCCn5cc(CCCCO[C@@H]6CC[C@@H](C[C@@H](C)[C@@H]7C[C@@H](OC)[C@H](C)/C=C(\C)[C@@H](O)[C@@H](OC)C(=O)[C@H](C)C[C@H](C)/C=C/C=C/C=C(\C)[C@@H](OC)C[C@@H]8CC[C@@H](C)[C@@](O)(O8)C(=O)C(=O)N8CCCC[C@H]8C(=O)O7)C[C@H]6OC)nn5)CC4)n4ncnc(N)c34)[nH]c12` [Example 190], the IC50 was below 1 nM in the experiment on P-P70S6K (T389), 3.16 to 31.6 nM in the experiment on P-4E-BP1 (T37/46) and 31.6 to 1000 nM in the experiment on P-Akt (S473).
On to `CO[C@H]1C[C@@H]2CC[C@@H](C)[C@@](O)(O2)C(=O)C(=O)N2CCCC[C@H]2C(=O)O[C@H]([C@H](C)C[C@@H]2CC[C@@H](O)[C@H](OC)C2)C[C@@H](O)[C@H](C)/C=C(\C)[C@@H](O)[C@@H](OC)C(=NOCc2cn(-c3cnc(N4CCN(c5ncc(C(=O)NCCOCCC(=O)NCCCCn6nc(-c7ccc8oc(N)nc8c7)c7c(N)ncnc76)cn5)CC4)nc3)nn2)[C@H](C)C[C@H](C)/C=C/C=C/C=C/1C` [Example 191], for which the values for the IC50 in the experiment with P-P70S6K (T389), in the experiment with P-4E-BP1 (T37/46) and in the experiment on P-Akt (S473) were below 1 nM, below 3.16 nM and above 1000 nM, respectively.
On to `CO[C@H]1C[C@@H]2CC[C@@H](C)[C@@](O)(O2)C(=O)C(=O)N2CCCC[C@H]2C(=O)O[C@H]([C@H](C)C[C@@H]2CC[C@@H](O)[C@H](OC)C2)C[C@@H](O)[C@H](C)/C=C(\C)[C@@H](O)[C@@H](OC)C(=NOCc2cn(-c3cnc(N4CCN(c5ncc(C(=O)NCCOCCOCCC(=O)NCCCCn6nc(-c7ccc8oc(N)nc8c7)c7c(N)ncnc76)cn5)CC4)nc3)nn2)[C@H](C)C[C@H](C)/C=C/C=C/C=C/1C` [Example 192], for which the IC50 in the experiment on P-P70S6K (T389) was below 1 nM; in the experiment with P-4E-BP1 (T37/46) it was 3.16 to 31.6 nM; with P-Akt (S473), above 1000 nM.
On to `CO[C@H]1C[C@@H]2CC[C@@H](C)[C@@](O)(O2)C(=O)C(=O)N2CCCC[C@H]2C(=O)O[C@H]([C@H](C)C[C@@H]2CC[C@@H](O)[C@H](OC)C2)C[C@@H](O)[C@H](C)/C=C(\C)[C@@H](O)[C@@H](OC)C(=NOCc2cn(-c3cnc(N4CCN(c5ncc(C(=O)NCCOCCOCCOCCC(=O)NCCCCn6nc(-c7ccc8oc(N)nc8c7)c7c(N)ncnc76)cn5)CC4)nc3)nn2)[C@H](C)C[C@H](C)/C=C/C=C/C=C/1C` [Example 193], for which the IC50 is below 1 nM in the experiment on P-P70S6K (T389), 3.16 to 31.6 nM with P-4E-BP1 (T37/46) and above 1000 nM with P-Akt (S473).
Turning to `CO[C@H]1C[C@@H]2CC[C@@H](C)[C@@](O)(O2)C(=O)C(=O)N2CCCC[C@H]2C(=O)O[C@H]([C@H](C)C[C@@H]2CC[C@@H](O)[C@H](OC)C2)C[C@@H](O)[C@H](C)/C=C(\C)[C@@H](O)[C@@H](OC)C(=NOCc2cn(-c3cnc(N4CCN(c5ncc(C(=O)NCCOCCC(=O)NCCCCn6nc(-c7ccc8oc(N)nc8c7)c7c(N)ncnc76)cn5)CC4CO)nc3)nn2)[C@H](C)C[C@H](C)/C=C/C=C/C=C/1C` (stereo partly drawn) [Example 194], the IC50 in the experiment on P-P70S6K (T389) is below 1 nM; in the experiment with P-4E-BP1 (T37/46), above 1000 nM; with P-Akt (S473), above 1000 nM.
On to `CO[C@H]1C[C@@H]2CC[C@@H](C)[C@@](O)(O2)C(=O)C(=O)N2CCCC[C@H]2C(=O)O[C@H]([C@H](C)C[C@@H]2CC[C@H](n3cc(COCCOCCOCCOCCOCCOCCOCCOCCOCCOCCC(=O)NCCCCn4nc(-c5cc6cc(O)ccc6[nH]5)c5c(N)ncnc54)nn3)[C@H](OC)C2)CC(=O)[C@H](C)/C=C(\C)[C@@H](O)[C@@H](OC)C(=O)[C@H](C)C[C@H](C)/C=C/C=C/C=C/1C` [Example 196], for which the IC50 is 1 to 10 nM with P-P70S6K (T389), 3.16 to 31.6 nM in the experiment with P-4E-BP1 (T37/46) and 31.6 to 1000 nM in the experiment with P-Akt (S473).
With `CO[C@H]1C[C@@H]2CC[C@@H](C)[C@@](O)(O2)C(=O)C(=O)N2CCCC[C@H]2C(=O)O[C@H]([C@H](C)C[C@@H]2CC[C@@H](OCCCCc3cn(CCOCCOCCOCCC(=O)NCCOCCOCCOCCC(=O)NCCCCn4nc(-c5ccc6oc(N)nc6c5)c5c(N)ncnc54)nn3)[C@H](OC)C2)CC(=O)[C@H](C)/C=C(\C)[C@@H](O)[C@@H](OC)C(=O)[C@H](C)C[C@H](C)/C=C/C=C/C=C/1C` [Example 198], the IC50 in the experiment with P-P70S6K (T389) was below 1 nM; in the experiment with P-4E-BP1 (T37/46), below 3.16 nM; with P-Akt (S473) it was 3.16 to 31.6 nM.
